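Method: 48-hour compound exposure of cells in 96-well plates, five concentrations, linear interpolation of endpoints. Definition used: TGI = concentration required for complete inhibition of growth.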
How the values were obtained:
Experiment in all cases: NCI tumour cell line growth inhibition, 48 h
786-0 renal = tested on: 786-0 renal
A498 renal = tested on: A498 renal
A549 NSCLC = tested on: A549 NSCLC
ACHN renal = tested on: ACHN renal
BT-549 breast = tested on: BT-549 breast
CAKI-1 renal = tested on: CAKI-1 renal
CCRF-CEM leukemia = tested on: CCRF-CEM leukemia
COLO 205 colon = tested on: COLO 205 colon
DU-145 prostate = tested on: DU-145 prostate
EKVX NSCLC = tested on: EKVX NSCLC
HCT-116 colon = tested on: HCT-116 colon
HCT-15 colon = tested on: HCT-15 colon
HL-60(TB) leukemia = tested on: HL-60(TB) leukemia
HOP-62 NSCLC = tested on: HOP-62 NSCLC
HOP-92 NSCLC = tested on: HOP-92 NSCLC
HS 578T breast = tested on: HS 578T breast
HT29 colon = tested on: HT29 colon
IGROV1 ovarian = tested on: IGROV1 ovarian
K-562 leukemia = tested on: K-562 leukemia
KM12 colon = tested on: KM12 colon
LOX IMVI melanoma = tested on: LOX IMVI melanoma
M14 melanoma = tested on: M14 melanoma
MALME-3M melanoma = tested on: MALME-3M melanoma
MCF7 breast = tested on: MCF7 breast
MDA-MB-231 breast = tested on: MDA-MB-231 breast
MDA-MB-435 = tested on: MDA-MB-435
MDA-N = tested on: MDA-N
MOLT-4 leukemia = tested on: MOLT-4 leukemia
NCI-H226 lung = tested on: NCI-H226 lung
NCI-H23 lung = tested on: NCI-H23 lung
NCI-H460 lung = tested on: NCI-H460 lung
NCI-H522 lung = tested on: NCI-H522 lung
NCI/ADR-RES ovarian = tested on: NCI/ADR-RES ovarian
OVCAR-3 ovarian = tested on: OVCAR-3 ovarian
OVCAR-4 ovarian = tested on: OVCAR-4 ovarian
OVCAR-5 ovarian = tested on: OVCAR-5 ovarian
OVCAR-8 ovarian = tested on: OVCAR-8 ovarian
PC-3 prostate = tested on: PC-3 prostate
RPMI-8226 leukemia = tested on: RPMI-8226 leukemia
RXF 393 renal = tested on: RXF 393 renal
SF-268 CNS = tested on: SF-268 CNS
SF-295 CNS = tested on: SF-295 CNS
SF-539 CNS = tested on: SF-539 CNS
SK-MEL-2 melanoma = tested on: SK-MEL-2 melanoma
SK-MEL-28 melanoma = tested on: SK-MEL-28 melanoma
SK-MEL-5 melanoma = tested on: SK-MEL-5 melanoma
SK-OV-3 ovarian = tested on: SK-OV-3 ovarian
SN12C renal = tested on: SN12C renal
SNB-19 CNS = tested on: SNB-19 CNS
SR leukemia = tested on: SR leukemia
SW-620 colon = tested on: SW-620 colon
T-47D breast = tested on: T-47D breast
TK-10 renal = tested on: TK-10 renal
U251 CNS = tested on: U251 CNS
UACC-257 melanoma = tested on: UACC-257 melanoma
UACC-62 melanoma = tested on: UACC-62 melanoma
UO-31 renal = tested on: UO-31 renal
HCC-2998 colon = tested on: HCC-2998 colon
SNB-75 CNS = tested on: SNB-75 CNS

OC1CN2Cc3cc4c(cc3[C@]13C=C[C@@H](O)CC23)OCO4 (stereo partly specified)
TGI (786-0 renal): > 100 µM | TGI (A498 renal): > 100 µM | TGI (A549 NSCLC): > 100 µM | TGI (ACHN renal): > 100 µM | TGI (BT-549 breast): > 100 µM | TGI (CAKI-1 renal): > 100 µM | TGI (CCRF-CEM leukemia): 48.5 µM | TGI (COLO 205 colon): > 100 µM | TGI (DU-145 prostate): 71.9 µM | TGI (EKVX NSCLC): 94.5 µM | TGI (HCT-116 colon): > 100 µM | TGI (HCT-15 colon): > 100 µM | TGI (HL-60(TB) leukemia): 75.3 µM | TGI (HOP-62 NSCLC): > 100 µM | TGI (HOP-92 NSCLC): 86.8 µM | TGI (HS 578T breast): > 100 µM | TGI (HT29 colon): > 100 µM | TGI (IGROV1 ovarian): > 100 µM | TGI (K-562 leukemia): > 100 µM | TGI (KM12 colon): > 100 µM | TGI (LOX IMVI melanoma): > 100 µM | TGI (M14 melanoma): > 100 µM | TGI (MALME-3M melanoma): > 100 µM | TGI (MCF7 breast): > 100 µM | TGI (MDA-MB-231 breast): > 100 µM | TGI (MDA-MB-435): > 100 µM | TGI (MDA-N): > 100 µM | TGI (MOLT-4 leukemia): > 100 µM | TGI (NCI-H226 lung): > 100 µM | TGI (NCI-H23 lung): > 100 µM | TGI (NCI-H460 lung): 45.6 µM | TGI (NCI-H522 lung): > 100 µM | TGI (NCI/ADR-RES ovarian): > 100 µM | TGI (OVCAR-3 ovarian): > 100 µM | TGI (OVCAR-4 ovarian): > 100 µM | TGI (OVCAR-5 ovarian): > 100 µM | TGI (OVCAR-8 ovarian): > 100 µM | TGI (PC-3 prostate): > 100 µM | TGI (RPMI-8226 leukemia): > 100 µM | TGI (RXF 393 renal): 58.6 µM | TGI (SF-268 CNS): > 100 µM | TGI (SF-295 CNS): > 100 µM | TGI (SF-539 CNS): > 100 µM | TGI (SK-MEL-2 melanoma): > 100 µM | TGI (SK-MEL-28 melanoma): > 100 µM | TGI (SK-MEL-5 melanoma): > 100 µM | TGI (SK-OV-3 ovarian): > 100 µM | TGI (SN12C renal): > 100 µM | TGI (SNB-19 CNS): > 100 µM | TGI (SR leukemia): > 100 µM | TGI (SW-620 colon): > 100 µM | TGI (T-47D breast): 31.2 µM | TGI (TK-10 renal): 93.3 µM | TGI (U251 CNS): > 100 µM | TGI (UACC-257 melanoma): 34.9 µM | TGI (UACC-62 melanoma): > 100 µM | TGI (UO-31 renal): > 100 µM

Cc1c(C)c2c(c(N)c1C#N)C(=O)N(CCN1CCNCC1)C2=O
TGI (786-0 renal): > 100 µM | TGI (A498 renal): 72.3 µM | TGI (A549 NSCLC): > 100 µM | TGI (ACHN renal): > 100 µM | TGI (BT-549 breast): > 100 µM | TGI (CAKI-1 renal): > 100 µM | TGI (CCRF-CEM leukemia): > 100 µM | TGI (COLO 205 colon): 78.7 µM | TGI (DU-145 prostate): > 100 µM | TGI (EKVX NSCLC): > 100 µM | TGI (HCC-2998 colon): > 100 µM | TGI (HCT-116 colon): 52.2 µM | TGI (HCT-15 colon): > 100 µM | TGI (HL-60(TB) leukemia): > 100 µM | TGI (HOP-92 NSCLC): > 100 µM | TGI (HS 578T breast): > 100 µM | TGI (IGROV1 ovarian): > 100 µM | TGI (K-562 leukemia): > 100 µM | TGI (KM12 colon): > 100 µM | TGI (LOX IMVI melanoma): 47.9 µM | TGI (M14 melanoma): > 100 µM | TGI (MALME-3M melanoma): 73.1 µM | TGI (MCF7 breast): > 100 µM | TGI (MDA-MB-231 breast): > 100 µM | TGI (MDA-MB-435): > 100 µM | TGI (MDA-N): > 100 µM | TGI (MOLT-4 leukemia): > 100 µM | TGI (NCI-H226 lung): > 100 µM | TGI (NCI-H460 lung): > 100 µM | TGI (NCI-H522 lung): 97.3 µM | TGI (NCI/ADR-RES ovarian): > 100 µM | TGI (OVCAR-3 ovarian): > 100 µM | TGI (OVCAR-4 ovarian): > 100 µM | TGI (OVCAR-5 ovarian): 81.1 µM | TGI (OVCAR-8 ovarian): > 100 µM | TGI (PC-3 prostate): > 100 µM | TGI (RPMI-8226 leukemia): > 100 µM | TGI (RXF 393 renal): 70.6 µM | TGI (SF-268 CNS): > 100 µM | TGI (SF-295 CNS): > 100 µM | TGI (SF-539 CNS): > 100 µM | TGI (SK-MEL-2 melanoma): > 100 µM | TGI (SK-MEL-28 melanoma): > 100 µM | TGI (SN12C renal): > 100 µM | TGI (SNB-19 CNS): > 100 µM | TGI (SNB-75 CNS): 77 µM | TGI (SR leukemia): 95 µM | TGI (SW-620 colon): > 100 µM | TGI (T-47D breast): > 100 µM | TGI (TK-10 renal): > 100 µM | TGI (U251 CNS): > 100 µM | TGI (UACC-257 melanoma): > 100 µM | TGI (UACC-62 melanoma): 62.4 µM | TGI (UO-31 renal): 90.9 µM
